ChEMBL document CHEMBL1821572, “Discovery of a novel series of selective HCN1 blockers” (Bioorg Med Chem Lett, 2011)

Columns and labels:
[1] = biological target: T1, Potassium/sodium hyperpolarization-activated cyclic nucleotide-gated channel 2 (Homo sapiens, UniProt Q9UL51); assay: Inhibition of human HCN2 heterologously expressed in HEK-293 cells after 30 mins by VIPR assay; assay type: cell-based, HEK293
T1 sequence (Q9UL51 whole entry): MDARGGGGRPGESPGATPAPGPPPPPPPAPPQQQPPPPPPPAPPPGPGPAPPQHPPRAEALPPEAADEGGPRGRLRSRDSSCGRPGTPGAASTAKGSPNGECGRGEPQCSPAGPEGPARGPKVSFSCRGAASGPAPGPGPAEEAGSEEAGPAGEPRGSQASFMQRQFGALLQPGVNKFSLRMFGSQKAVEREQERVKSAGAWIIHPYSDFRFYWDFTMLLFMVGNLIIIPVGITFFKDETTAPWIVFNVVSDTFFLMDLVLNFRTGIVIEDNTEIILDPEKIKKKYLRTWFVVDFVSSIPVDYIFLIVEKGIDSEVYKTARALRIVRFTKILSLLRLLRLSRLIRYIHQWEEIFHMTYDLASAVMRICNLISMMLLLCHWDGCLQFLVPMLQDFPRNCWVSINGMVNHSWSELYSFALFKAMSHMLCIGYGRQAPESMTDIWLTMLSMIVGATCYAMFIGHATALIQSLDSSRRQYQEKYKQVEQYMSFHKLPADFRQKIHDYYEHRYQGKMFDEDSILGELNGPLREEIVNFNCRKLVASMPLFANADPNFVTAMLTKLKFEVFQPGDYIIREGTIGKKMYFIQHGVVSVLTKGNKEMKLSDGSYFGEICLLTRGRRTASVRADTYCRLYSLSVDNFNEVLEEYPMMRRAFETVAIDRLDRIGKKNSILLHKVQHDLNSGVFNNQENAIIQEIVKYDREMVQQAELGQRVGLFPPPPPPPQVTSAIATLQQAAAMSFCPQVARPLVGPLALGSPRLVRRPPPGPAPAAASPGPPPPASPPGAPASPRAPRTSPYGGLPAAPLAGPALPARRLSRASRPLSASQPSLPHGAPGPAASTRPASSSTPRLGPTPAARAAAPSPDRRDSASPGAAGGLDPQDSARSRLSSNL

Mus musculus = organism: Mus musculus; assay: Toxicity in C57BL/6 mouse assessed as induction of bradycardia after 50 mins by ECG study; assay type: organism-based; settings: in vivo
[2] = Half life in human liver microsomes; assay type: ADME, Microsome

CCOc1ccccc1C(=O)NCC1(N2CCNCC2)CCCCC1
IC50 [1]: 5.01 µM | ED20 (Mus musculus): 25 mg/kg | half-life [2]: 3.92 h
